This is an account of results in patent publication US20220009918A1, “Chemical Compounds” (GlaxoSmithKline Intellectual Property Development Limited, priority 2018, published 2022).

Each structure is given as a SMILES string.

The target in the experiment is T1, human H-PGDS (Homo sapiens, UniProt O60760).
T1 construct: Full length human H-PGDS cDNA (Invitrogen Ultimate ORF IOH13026) was amplified by PCR; 6-His (N); TEV protease cleavage site (N); made in house; host or cells: E. coli BL21 (DE3*) for H-PGDS; Sf9 insect cells (baculovirus) for COX-2
T1 sequence (O60760 whole entry): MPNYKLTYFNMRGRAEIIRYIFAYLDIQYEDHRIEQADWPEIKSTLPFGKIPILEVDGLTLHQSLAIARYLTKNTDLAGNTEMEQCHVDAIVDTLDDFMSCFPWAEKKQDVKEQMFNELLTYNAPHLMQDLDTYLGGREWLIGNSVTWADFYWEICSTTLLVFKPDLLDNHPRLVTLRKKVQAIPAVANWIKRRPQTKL
Put plainly: H-PGDS RapidFire high throughput mass spectrometry assay. The experiment is classed as biochemical. The conditions noted are these: inhibition of conversion of PGH2 to PGD2 by H-PGDS; mean pIC50; read-out: Potency Range (mean pIC50) (converted). The procedure, abridged:
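Full-length His-tagged human H-PGDS from E. coli converted PGH2, generated in situ (~10 μM burst) from arachidonic acid by FLAG-tagged human COX-2 (Sf9-expressed). PGD2 and PGF2α (substrate surrogate) were measured by RapidFire SPE-triple quadrupole MS. Percent conversion was calculated, and inhibition was taken as reduced conversion.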

On to `O=C(NN1CCNC1=O)c1cnc(-c2cc(F)cc(Cl)c2)s1` [Example 79, 2-(3-Chloro-5-fluorophenyl)-N-(2-oxoimidazolidin-1-yl)thiazole-5-carboxamide], for which the IC50 was 10.2 to 100 nM.
With `O=C1NCC[C@@H]1NC(=S)c1cnc(-c2cc(F)cc(Cl)c2)s1` [Example 80, (S)-2-(3-chloro-5-fluorophenyl)-N-(2-oxopyrrolidin-3-yl)thiazole-5-carbothioamide], the IC50 is 1.02 to 10 nM.
The result for `C[C@H]1C[C@H](NC(=O)c2cnc(-c3cc(F)cc(Cl)c3)s2)C(=O)N1` [Example 81, 2-(3-Chloro-5-fluorophenyl)-N-((3S,5S)-5-methyl-2-oxopyrrolidin-3-yl)thiazole-5-carboxamide] reads 1.02 to 10 nM; that for `CC1(C)C[C@@H](NC(=O)c2cnc(-c3cc(F)cc(Cl)c3)s2)C(=S)N1` [Example 84, (R)-2-(3-Chloro-5-fluorophenyl)-N-(5,5-dimethyl-2-thioxopyrrolidin-3-yl)thiazole-5-carboxamide], 102 to 1000 nM; that for `CC1(C)C[C@H](NC(=O)c2cnc(-c3cc(F)cc(Cl)c3)s2)C(=S)N1` [Example 85, (S)-2-(3-Chloro-5-fluorophenyl)-N-(5,5-dimethyl-2-thioxopyrrolidin-3-yl)thiazole-5-carboxamide], 1.02 to 10 nM.
The result for `O=C1NCC[C@@H]1NS(=O)(=O)c1cnc(-c2ccccc2)s1` [Example 86, (S)-N-(2-Oxopyrrolidin-3-yl)-2-phenylthiazole-5-sulfonamide] reads > 10000 nM.
